Consider 23 compounds from US20140377219A1, “HIV INHIBITORS” (New york Blood Center, Inc., priority 2011, published 2014).

The subject of one series is MT-2 cells. Briefly: Cytotoxicity in MT-2 cells (XTT). Type of series: cell-based. The protocol: Cytotoxicity of small molecules in MT-2 cells and PBMC was measured by the XTT ((sodium 3′-(1-(phenylamino)-carbonyl)-3,4-tetrazolium-bis(4-methoxy-6-nitro)benzene-sulfonic acid hydrate)) method. Briefly, for MT-2 cells, 100 μl of a small molecule at graded concentrations was added to an equal volume of cells (10^5 cells/ml) in 96-well plates followed by incubation at 37° C. for four days, which ran parallel with the neutralization assay in MT-2 (except medium was added instead of virus). In the case of PBMC, 5×10^5 cells/ml was used and the cytotoxicity was measured after seven days. […] The percentage cytotoxicity and the CC50 values were calculated as described above.
(Tetrazolium dyes change colour on reduction, which living cells bring about.)

For the next series, the system named is TZM-bl cells. Briefly: Cytotoxicity in TZM-bl cells (XTT). Format: cell-based. Here is the method: The cytotoxicity of small molecules in TZM-bl cells was measured by a colorimetric method using XTT (sodium 3′-(1-(phenylamino)-carbonyl)-3,4-tetrazolium-bis(4-methoxy-6-nitro)benzenesulfonic acid hydrate), a light yellowish tetrazolium dye. Briefly, 100 μl of a compound at graded concentrations was added to equal volume of cells (10^5/ml) in wells of 96-well plates followed by incubation at 37° C. for 3 days and addition of XTT (PolySciences, Inc., Warrington, Pa.).

Series [1] relates to laboratory-adapted HIV-1 IIIB strain. To be noted: read-out: MT-2 Cells IC50 (μM ± SD); multi-cycle assay, MT-2 cells, HIV-1 IIIB.
[2] abbreviates: MT-2 cells, XTT, four days, read-out: MT-2 Cells CC50.
[3] abbreviates: at the dose given as CC50 bound.
[4] abbreviates: TZM-bl cells, XTT, 3 days, read-out: TZM-bl cells CC50 (μM ± SD).

Structures are written as SMILES. Structures can show the parent of a compound that is named as a salt. Where two headings read alike, the source gives them in different places.

As for `Cc1nc(C(NC(=O)C(=O)Nc2ccc(Cl)cc2)C2CCCCN2)sc1CCO.O=CO` (centres unmarked) [Compound 30, N^1-(4-chlorophenyl)-N^2-((5-(2-hydroxyethyl)-4-methylthiazol-2-yl)(piperidin-2-yl)methyl)oxalamide.HCOOH], the figures for the CC50 in the series on MT-2 cells (setting [2]) and with TZM-bl cells (setting [4]) were greater than 62 µM and 32.8 ± 0.6 µM, respectively. The “% toxicity at that dose (number in parenthesis), MT-2 cells” value (“% toxicity at that dose … MT-2 cells” for short) in the series on MT-2 cells (setting [3]) is listed as 0%. Further, the IC50 in series [1] turned out to be 4.2 ± 0.3 µM.

`Cc1nc(C(NC(=O)C(=O)Nc2ccc(Cl)cc2)C2CCCN2)sc1CCO` (centres unmarked) [Compound 15, N^1-(4-chlorophenyl)-N^2-((5-(2-hydroxyethyl)-4-methylthiazol-2-yl)(pyrrolidin-2-yl)methyl)oxalamide.HCOOH]: the CC50 in the series on MT-2 cells was roughly 42 µM; with TZM-bl cells, roughly 4.9 µM. Besides, in series [1], the IC50 was found to be 16.2 ± 1.7 µM.

For the compound `Cc1nc(C(NC(=O)C(=O)Nc2ccc(F)c(F)c2)C2CCCCN2)sc1CCO.Cl.Cl` (centres unmarked) [Compound 33, N^1-(3,4-difluorophenyl)-N^2-((5-(2-hydroxyethyl)-4-methylthiazol-2-yl)(piperidin-2-yl)methyl)oxalamide.2HCl], the CC50 in the series with MT-2 cells (setting [2]) and in the series with TZM-bl cells (setting [4]) was greater than 78.2 µM throughout. Further, the “% toxicity at that dose (number in parenthesis), TZM-bl cells” value (shortened to “% toxicity at that dose … TZM-bl cells”) in the series with TZM-bl cells (setting [3]) was determined as 10%. In addition, the IC50 in series [1] was 24.1 ± 4.6 µM.

For the compound `Cc1nc(C(NC(=O)C(=O)Nc2ccc(F)c(Cl)c2)C2CCCCN2)sc1CO.Cl.Cl` (centres unmarked) [Compound 24, N^1-(3-chloro-4-fluorophenyl)-N^2-((5-(hydroxymethyl)-4-methylthiazol-2-yl)(piperidin-2-yl)methyl)oxalamide.2HCl], the CC50 with MT-2 cells was greater than 77.8 µM. Further, in the series on TZM-bl cells, the “% toxicity at that dose … TZM-bl cells” value is >77.8 (0%) and the CC50 is greater than 77.8 µM. Further, the IC50 in series [1] worked out at 9.5 ± 1.4 µM.

With `CC(=O)c1ccc(NC(=O)C(=O)NC(c2nc(C)c(CCO)s2)C2CCCCN2)cc1` (centres unmarked) [Compound 34, N^1-(4-acetylphenyl)-N^2-((5-(2-hydroxyethyl)-4-methylthiazol-2-yl)(piperidin-2-yl)methyl)oxalamide.2HCl], the CC50 was greater than 48.3 µM in the series with MT-2 cells and greater than 77.3 µM in the series on TZM-bl cells. Also, the 50% inhibitory concentration (IC50) in series [1] stood at 24.5 ± 1.5 µM.

As to `Cc1nc(C(NC(=O)C(=O)Nc2ccc(F)c(Cl)c2)C2CCCCN2)sc1CCO.Cl.Cl` (centres unmarked) [Compound 35, N^1-(3-chloro-4-fluorophenyl)-N^2-((5-(2-hydroxyethyl)-4-methylthiazol-2-yl)(piperidin-2-yl)methyl)oxalamide.2HCl], the CC50 with MT-2 cells is roughly 94.7 µM. In the series with TZM-bl cells, the “% toxicity at that dose … TZM-bl cells” value was >75.8 (20%) and the CC50 is greater than 75.8 µM. Also, the IC50 in series [1] is 19.5 ± 1.8 µM.

Consider `CC(=O)c1ccc(NC(=O)C(=O)NC(c2nc(C)c(CO)s2)C2CCCCN2)cc1` (centres unmarked) [Compound 23, N^1-(4-acetylphenyl)-N^2-((5-(hydroxymethyl)-4-methylthiazol-2-yl)(piperidin-2-yl)methyl)oxalamide.HCl], for which the CC50 in the series on MT-2 cells was greater than 107 µM; in the series with TZM-bl cells, greater than 86 µM. In addition, the IC50 in series [1] was roughly 107 µM.

Regarding `Cc1nc(C(NC(=O)C(=O)Nc2ccc(Cl)cc2)C2CCCCN2C)sc1CCO` (centres unmarked) [Compound 12, N^1-(4-chlorophenyl)-N^2-((5-(2-hydroxyethyl)-4-methylthiazol-2-yl)(1-methylpiperidin-2-yl)methyl)oxalamide], the CC50 in the series on TZM-bl cells (setting [4]) was determined as 36 ± 3.3 µM.

On to `Cc1nc(C(NC(=O)CCC(=O)Nc2ccc(Cl)cc2)C2CCCN2)sc1CO` (centres unmarked) [Compound 41, N^1-(4-chlorophenyl)-N^4-((5-(hydroxymethyl)-4-methylthiazol-2-yl)(pyrrolidin-2-yl)methyl)succinamide.HCl], for which the CC50 in the series on MT-2 cells and in the series on TZM-bl cells was greater than 85 µM in each case. In addition, in series [1], the IC50 is greater than 42 µM.

Take `Cc1nc(C(NC(=O)C(=O)Nc2ccc(F)cc2)C2CCCCN2)sc1CCO` (centres unmarked) [Compound 36, N^1-(4-fluorophenyl)-N^2-((5-(2-hydroxyethyl)-4-methylthiazol-2-yl)(piperidin-2-yl)methyl)oxalamide.HCl]: the cytotoxic concentration (CC50) is roughly 109 µM in the series with MT-2 cells and greater than 88 µM in the series on TZM-bl cells.

Consider `Cc1nc(C(NC(=O)C(=O)Nc2ccc(Cl)cc2)C2CCCNC2)sc1CCO` (centres unmarked) [Compound 10, N^1-(4-chlorophenyl)-N^2-((5-(2-hydroxyethyl)-4-methylthiazol-2-yl)(piperidin-3-yl)methyl)oxalamide.2HCl], for which the CC50 in the series on MT-2 cells was greater than 78.5 µM; with TZM-bl cells, roughly 59.4 µM. For the same compound, the IC50 in series [1] came to 13.1 ± 2.4 µM.

Turning to `Cc1ccc(NC(=O)C(=O)NC(c2nc(C)c(CCO)s2)C2CCCCN2)c(F)c1` (centres unmarked) [Compound 37, N^1-(2-fluoro-4-methylphenyl)-N^2-((5-(2-hydroxyethyl)-4-methylthiazol-2-yl)(piperidin-2-yl)methyl)oxalamide.2HCl], the CC50 in the series with MT-2 cells (setting [2]) and with TZM-bl cells (setting [4]) was greater than 78.8 µM in each case. Also, the IC50 in series [1] came to 45.8 ± 3.5 µM.

In the case of `Cc1nc(C(NC(=O)C(=O)Nc2ccc(F)c(F)c2)C2CCCCN2)sc1CO.Cl` (centres unmarked) [Compound 22, N^1-(3,4-difluorophenyl)-N^2-((5-(hydroxymethyl)-4-methylthiazol-2-yl)(piperidin-2-yl)methyl)oxalamide.HCl], the CC50 in the series on MT-2 cells (setting [2]) and in the series with TZM-bl cells (setting [4]) was greater than 87 µM in each case. Moreover, in the series with TZM-bl cells (setting [3]), the “% toxicity at that dose … TZM-bl cells” value is recorded as 0%. For the same compound, in series [1], the IC50 is 14 ± 3.8 µM.

Regarding `CNCC(NC(=O)C(=O)Nc1ccc(Cl)cc1)c1nc(C)c(CCO)s1` (centres unmarked) [Compound 16, N^1-(4-chlorophenyl)-N^2-(1-(5-(2-hydroxyethyl)-4-methylthiazol-2-yl)-2-(methylamino)ethyl)oxalamide.2HCl], the figures for the CC50 in the series with MT-2 cells and in the series with TZM-bl cells were greater than 43 µM and 16.6 ± 1 µM, respectively. In addition, the IC50 in series [1] came to 24.3 ± 2.2 µM.

For the compound `COC(=O)[C@@H]1C[C@@H](NC(=O)C(=O)Nc2ccc(Cl)cc2)[C@H](c2ccccc2)N1` [Compound 18, (2S,4R,5S)-methyl 4-(2-(4-chlorophenylamino)-2-oxoacetamido)-5-phenyl pyrrolidine-2-carboxylate], the CC50 with MT-2 cells (setting [2]) and in the series with TZM-bl cells (setting [4]) was greater than 99.6 µM each time. Also, the IC50 in series [1] is greater than 24.9 µM.

For the compound `Cc1nc(C(NC(=O)CCC(=O)Nc2ccc(Cl)cc2)C2CCCCN2)sc1CO.Cl` (centres unmarked) [Compound 51, N^1-(4-chlorophenyl)-N^4-((5-(hydroxymethyl)-4-methylthiazol-2-yl)(piperidin-2-yl)methyl)succinamide.HCl], the CC50 in the series on MT-2 cells (setting [2]) and with TZM-bl cells (setting [4]) was greater than 82 µM in each case. Also, the “% toxicity at that dose … MT-2 cells” value in the series on MT-2 cells (setting [3]) is listed as 20%. The “% toxicity at that dose … TZM-bl cells” value in the series with TZM-bl cells (setting [3]) turned out to be 0%. In series [1], the IC50 is roughly 40 µM.

Turning to `CC(C)c1nccn1CCCNC(=O)CCC(=O)Nc1ccc(Cl)cc1` [Compound 48, N^1-(4-chlorophenyl)-N^4-(3-(2-isopropyl-1H-imidazol-1-yl)propyl)succinamide. HCOOH], the CC50 in the series with MT-2 cells and in the series on TZM-bl cells was greater than 95 µM in each case. In series [1], the IC50 is greater than 36 µM.

On to `Cc1nc(C(NC(=O)C(=O)Nc2ccc(Cl)cc2)C2CCCNC2)sc1CO` (centres unmarked) [Compound 7, N^1-(4-chlorophenyl)-N^2-((5-(hydroxymethyl)-4-methylthiazol-2-yl)(piperidin-3-yl)methyl)oxalamide.2HCl], for which the CC50 in the series with MT-2 cells was greater than 81 µM; in the series with TZM-bl cells, roughly 60.2 µM. Moreover, in series [1], the IC50 stood at 12 ± 1.1 µM.

Regarding `Cc1nc(C(NC(=O)C(=O)Nc2ccc(F)cc2F)C2CCCCN2)sc1CCO` (centres unmarked) [Compound 32, N^1-(2,4-difluorophenyl)-N^2-((5-(2-hydroxyethyl)-4-methylthiazol-2-yl)(piperidin-2-yl)methyl)oxalamide.HCl], the 50% cytotoxic concentration (CC50) in the series with MT-2 cells is greater than 105 µM; in the series on TZM-bl cells (setting [4]) it was greater than 84 µM. Also, in series [1], the IC50 is greater than 105 µM.

With `Cc1nc(C(NC(=O)C(=O)Nc2ccc(Cl)cc2)C2CCCCN2)sc1CCO.O=CO` (centres unmarked) [Compound 9, N^1-(4-chlorophenyl)-N^2-((5-(2-hydroxyethyl)-4-methylthiazol-2-yl)(piperidin-2-yl)methyl)oxalamide.HCOOH], in the series with MT-2 cells, the “% toxicity at that dose … MT-2 cells” value turned out to be 0% and the CC50 was greater than 62 µM. Further, the IC50 in series [1] turned out to be 4.2 ± 0.2 µM.

Take `Cc1nc(C(NC(=O)C(=O)NC2CCCCCC2)C2CCCCN2)sc1CO` (centres unmarked) [Compound 29, N^1-cycloheptyl-N^2-((5-(hydroxymethyl)-4-methylthiazol-2-yl)(piperidin-2-yl)methyl)oxalamide.HCl]: the CC50 in the series with MT-2 cells (setting [2]) and in the series with TZM-bl cells (setting [4]) was greater than 90 µM each time. Moreover, the IC50 in series [1] turned out to be 39.3 ± 5 µM.

For `Cc1nc(C(NC(=O)C(=O)NC2CCCCCC2)C2CCCCN2)sc1CCO` (centres unmarked) [Compound 40, N^1-cycloheptyl-N^2-((5-(2-hydroxyethyl)-4-methylthiazol-2-yl)(piperidin-2-yl)methyl)oxalamide.HCl], the values for the CC50 with MT-2 cells (setting [2]) and in the series with TZM-bl cells (setting [4]) were roughly 60 µM and greater than 88 µM, respectively. The IC50 in series [1] stood at 19.6 ± 4 µM.

In the case of `Cc1nc(C(NC(=O)C(=O)Nc2ccc(C(F)(F)F)cc2)C2CCCCN2)sc1CCO.Cl.Cl` (centres unmarked) [Compound 31, N^1-((5-(2-hydroxyethyl)-4-methylthiazol-2-yl)(piperidin-2-yl)methyl)-N^2-(4-(trifluoromethyl)phenyl)oxalamide.2HCl], the CC50 in the series with MT-2 cells (setting [2]) was greater than 39 µM; in the series with TZM-bl cells (setting [4]) it was greater than 74 µM. In addition, in the series with TZM-bl cells (setting [3]), the “% toxicity at that dose … TZM-bl cells” value worked out at 35%. For the same compound, the IC50 in series [1] came to 17.4 ± 5.7 µM.

By CC50 is commonly meant the concentration giving 50% cytotoxicity. What is called IC50 is the midpoint of a concentration-inhibition curve.
